Results: US20140322344A1, “VACCINE PREPARATION FOR CANCER TREATMENT” (priority 2011, published 2014)

Legend:
[1] = system: mouse colon cancer cells CT 26 into which the MAGE-A4 gene was stably introduced; assay: Tumor rejection test, CT26/MAGE-A4; assay type: in vivo, BALB/c mice; details: co-administered s.c. with CpG oligo DNA 7 days before tumor implantation; p<0.0001; FIG. 7
Method: A mouse colon cancer cell CT26 cell line into which the MAGE-A4 gene was stably introduced or a mouse fibrosarcoma CMS5a cell line which expresses mERK2 was subcutaneously implanted in the following manner. The CT26 cell line or CMS5a cell line, which had been cultured in a T75 flask (Nunc Co., Ltd.), was washed with PBS; then the cells were removed with PBS containing 0.5% trypsin and collected in RPMI1640 medium containing 10% FBS. After centrifugation (400×g, 5 min., 4° C.), the supernatant was removed, washed twice with RPMI1640 medium, then re-suspended in RPMI1640 medium at a concentration of 1×10^6 cells/100 μL, and subcutaneously implanted into BALB/c mice in an amount of 100 μL/individual. Subsequently, their tumor areas were measured over time. A comparison of the data in the tumor rejection test was performed according to Student's t-test using MS Excel (Microsoft).

[2] = system: CD8-positive killer T cells and CD4-positive helper T cells specific to MAGE-A4 epitopes; assay: Induction of antigen-specific T cells in immunized mice, spleen cells, intracellular cytokine staining (MAGE-A4 peptides); assay type: in vivo, BALB/c mice; details: s.c. twice at one week intervals, FIG. 1
Method: […] For administration, they were subcutaneously injected into the backs of the mice twice at one week intervals. For one dose of the hydrophobized polysaccharide-synthetic long peptide complex, a dosage corresponding to 0.1 mg of the synthetic long peptide complex was administered. Either the CpG oligo DNA or the poly-IC RNA as the immunopotentiating agent was subcutaneously injected at a dose of 0.05 mg proximal to the administration site of the hydrophobized polysaccharide-synthetic long peptide.
One week after the final administration, spleen cells were isolated from the treated mice in the following manner. The spleen was isolated from the mouse and washed in RPMI1640 medium to remove blood. The spleen was ground using a slide glass, and then the free cells were collected in RPMI1640 medium. After centrifugation (400×g, 5 min., 4° C.), the supernatant was removed, to which 2 mL of ACK solution was added to treat the cells for 1 minute. 18 mL of RPMI1640 medium was added and centrifugation (400×g, 5 min., 4° C.) was carried out. […] After the number of the cells was counted, the cells were suspended in RPMI1640 medium containing 10% fetal bovine serum (FBS) so that the cell concentration was 1×10^7 cells/mL. […]
The cells were analyzed with a flow cytometer (FACS Canto II, BD Biosciences Company) using the associated analysis software (FACSDiva).

In the case of “MAGE-A4 p264:40: synthetic long peptide, 40 aa, from MAGE-A4, SEQ ID NO: 1: GSNPARYEFLWGPRALAETSYVKVLEHVVRVNARVRIAYP (Human; MAGE-A4 p26440)”, the “tumor growth inhibition as compared to PBS administration group” value [1] was “significant inhibition”, the “induction of killer T cells and helper T cells specific to the peptide” value ([2]; administered alone, no immunopotentiating agent) was “are not induced” and the “induction of antigen-specific killer T cells and helper T cells” value ([2]; co-administered with CpG oligo DNA) was “the intended T cells are not induced”.
